Results from EP4721737A1, “USE OF PHARMACEUTICAL COMPOSITION COMPRISING COMPOUND HAVING BIS(AZANYLYLIDENE) SULFONYL STRUCTURE FOR TREATING ANEMIA-RELATED DISEASES” (Scinnohub Pharmaceutical Co., Ltd., priority 2023, dated 2024).
Like-named read-outs stand apart in the source and are kept apart here.

What was measured:
[1] = pharmacokinetic properties test in rats; format: in vivo; settings: SD rat, single, plasma; for MRT last: read-out: MRT0-t; for Vd: read-out: Vss
Procedure: (§1) The pharmacokinetic properties of the compounds of the present disclosure in different animal species were investigated by measuring plasma drug concentrations following intravenous and oral gavage in mouse, rat, and dog.
(§2) i. The compounds were weighed, then the solvent (5% DMSO + 10% Solutol + 85% saline) was added to prepare the administration solution. ii. On the day before the experiment, animals in the oral administration group were fasted overnight (10-14 hours) and fed 4 hours after administration. iii. At each time point after administration, approximately 30 µL of venous blood was collected from an appropriate location in each group of animals and placed in a sodium heparin tube. Blood samples were placed on ice and centrifuged within 1 hour to separate plasma (centrifugation conditions: 6800 g, 6 min, 2-8°C). Plasma samples were stored at -80°C until analysis.
(§3) b) An LC-MS/MS analytical method was developed for measuring compound concentrations in mouse, rat, and dog plasma. This method was used to determine compound concentrations in biological samples obtained in this assay.
(§4) Pharmacokinetic parameters were calculated using Phoenix WinNonlin 7.0 using plasma drug concentration data at different time points.

[2] = target: T1, PKR in ex vivo red blood cells of patients with thalassemia (Homo sapiens, UniProt P30613); test: ex vivo pyruvate kinase (PKR) activity experiment, red blood cells of patients with thalassemia; format: cell-based
T1 construct: endogenous in cells; host or cells: human red blood cells of thalassemia patients (Patients A-D)
Procedure: To test the effects of the compound of the present disclosure on PKR activation in ex vivo red blood cells from healthy individuals and patients with thalassemia.
• i. 5 g of glucose, 85 mg of adenine, and 2.625 g of mannitol were weighed and added into a 50 mL centrifuge tube. 40 mL of PBS was added to dissolve (sonicate for 30 minutes until completely dissolved). The solution was filtered through a 0.22 µm filter, then added to 460 mL of sterile PBS and mixed thoroughly.
• i. Fresh human peripheral blood was collected. K2EDTA was used as the anticoagulant. 1 part anticoagulant with 9 parts blood was mixed, then centrifuged at 500 g for 10 minutes at room temperature to remove the plasma. • ii. Packed red blood cells: 1.5 volumes of PBS were added, then centrifuged at 2000 ×g for 5 minutes at room temperature. After centrifugation, the supernatant was removed. This step was repeated twice. • iii. Diluted red blood cells: 1.5 volumes of PBS were added, then resuspended and mixed thoroughly. • iv. The diluted red blood cells were slowly added to 0.5 volume of 70% isotonic solution (e.g., 7.5 mL of diluted red blood cells + 3 mL of 70% isotonic solution Percoll) and centrifuged at 4000 ×g for 20 minutes at 4°C. • v. The supernatant was removed. The red blood cells at the bottom were washed once with 4-5 mL of PBS to elute the Percoll gel, and then centrifuged at 2000 ×g for 5 minutes at room temperature. • vi. The supernatant was removed. The red blood cells were counted and then diluted in AGAM medium containing 10% FBS to a density of 2 × 10^8 cells/mL for storage at 4°C.
i. The red blood cells were seeded into a 96-well plate at a uniform density of 1 × 10^7 cells/mL, with 100 µL per well. The test compounds (dissolved in DMSO) were diluted and added to the cell culture medium, resulting in final compound concentrations of 3000, 1000, 300, 100, 10, 3, and 1 nM (with 1% DMSO). The cells and compounds were co-cultivated for 3 hours in a 37°C incubator with 5% CO2. Subsequently, the plate was centrifuged at 2000 g for 20 minutes, and the supernatant was discarded. 100 µL of red blood cell lysis buffer was added to the cell pellet, vortexed for 20 minutes, and centrifuged at 4000 g for 5 minutes. The supernatant was collected for analysis. ii. The reaction system was prepared according to the kit instructions (shown as the table below), 10 µL of the reaction system was added to each well of a 384-well plate, and 10 µL of red blood cell lysis buffer was took and mixed well (20 µL reaction system).
iii. A black, transparent-bottomed 384-well plate was placed in a microplate reader to measure fluorescence at 540/590 nm. The fluorescence was read every 2 minutes for 1 hour.
i. The Slope value was calculated over the assay time. Compound activation percentage was calculated using the 1% DMSO well as the control well. Activation percentage = (Slope of compound well / Slope of control well) × 100% ii. Dose-response curve was fit using the logarithmic compound concentration on the X-axis and the percent activation percentage on the Y-axis, the log(agonist) vs. response - variable slope function in GraphPad Prism 5 was used to determine the AC50 value for each compound on PKR activity. Y = min + (max−min)/(1+10^(∧)((LogAC50−X)×Hillslope)). [formula] The PKR agonist effects of the compound of the present disclosure on ex vivo red blood cells from healthy individuals and thalassemia patients were determined using the above assay. The AC50 values measured on ex vivo red blood cells from healthy individuals are as follows (A represents 0-100 nM, B represents 101-300 nM, and C represents 300-1000 nM): […]

[3] = pharmacokinetic properties test in dogs; format: in vivo; settings: dog, Beagle, single, plasma; for MRT last: read-out: MRT0-t; for Vd: read-out: Vss
Procedure: as §1, §2, §3, §4

[4] = pharmacokinetic properties test in mice; format: in vivo; settings: ICR mouse, single, plasma; for MRT last: read-out: MRT0-t; for Vd: read-out: Vss
Procedure: as §1, §2, §3, §4

[5] = thalassemia Patient A, read-out: AC50 (nM) Patient A
[6] = thalassemia Patient B, read-out: AC50 (nM) Patient B
[7] = thalassemia Patient C, read-out: AC50 (nM) Patient C
[8] = thalassemia Patient D, read-out: AC50 (nM) Patient D

T1 sequence (P30613 whole entry): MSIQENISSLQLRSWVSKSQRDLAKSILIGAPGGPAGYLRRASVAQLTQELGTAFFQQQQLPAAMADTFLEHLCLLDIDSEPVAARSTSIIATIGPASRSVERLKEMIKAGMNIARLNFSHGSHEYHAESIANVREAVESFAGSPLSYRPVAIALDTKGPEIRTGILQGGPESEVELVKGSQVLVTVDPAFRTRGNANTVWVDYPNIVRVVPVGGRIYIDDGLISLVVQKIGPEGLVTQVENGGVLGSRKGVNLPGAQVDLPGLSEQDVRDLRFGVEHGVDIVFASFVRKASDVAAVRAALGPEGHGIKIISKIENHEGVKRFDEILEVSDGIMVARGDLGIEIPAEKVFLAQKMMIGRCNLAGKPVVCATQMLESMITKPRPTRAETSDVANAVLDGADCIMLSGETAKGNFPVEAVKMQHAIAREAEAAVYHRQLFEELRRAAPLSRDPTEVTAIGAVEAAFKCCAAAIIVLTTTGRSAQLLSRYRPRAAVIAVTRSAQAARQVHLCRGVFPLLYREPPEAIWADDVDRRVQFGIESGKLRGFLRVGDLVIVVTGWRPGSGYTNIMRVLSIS

Question: Which results are given for N#Cc1ccc(S(=O)(=O)N2CC(=C3CN(C(=O)[C@H](CO)c4ccccc4)C3)C2)cc1 [Compound 65, (S)-4-(1'-(3-hydroxy-2-phenylpropionyl)-1',4'-dihydro-2H,2'H-[3,3'-diazetidinylidene]-1(4H)-ylsulfonyl)benzonitrile]?
Answer: AUC(0-t) ([1]; 1 mg/kg intravenous injection): 394 ng·h/mL; Cmax ([1]; 1 mg/kg intravenous injection): 689 ng/mL; Tmax ([1]; 1 mg/kg intravenous injection): 4.8 min; clearance ([1]; 1 mg/kg intravenous injection): 42.2 mL/min/kg; half-life ([1]; 1 mg/kg intravenous injection): 38.4 min; MRT last ([1]; 1 mg/kg intravenous injection): 0.58 h; Vd ([1]; 1 mg/kg intravenous injection): 1.56 L/kg; AUC(0-t) ([1]; 10 mg/kg oral gavage, fasted): 1730 ng·h/mL; Cmax ([1]; 10 mg/kg oral gavage, fasted): 993 ng/mL; Tmax ([1]; 10 mg/kg oral gavage, fasted): 15 min; half-life ([1]; 10 mg/kg oral gavage, fasted): 91.8 min; MRT last ([1]; 10 mg/kg oral gavage, fasted): 2.24 h; AC50 [2, 5]: 251 nM; AC50 [2, 6]: 84.4 nM; AC50 [2, 7]: 140 nM; AC50 [2, 8]: 145 nM; AUC(0-t) ([3]; 2 mg/kg intravenous injection): 8570 ng·h/mL; Cmax ([3]; 2 mg/kg intravenous injection): 1770 ng/mL; Tmax ([3]; 2 mg/kg intravenous injection): 8.4 min; clearance ([3]; 2 mg/kg intravenous injection): 3.72 mL/min/kg; half-life ([3]; 2 mg/kg intravenous injection): 349 min; MRT last ([3]; 2 mg/kg intravenous injection): 5.53 h; Vd ([3]; 2 mg/kg intravenous injection): 1.55 L/kg; AUC(0-t) ([3]; 5 mg/kg oral gavage, fasted): 19500 ng·h/mL; Cmax ([3]; 5 mg/kg oral gavage, fasted): 2480 ng/mL; Tmax ([3]; 5 mg/kg oral gavage, fasted): 79.8 min; half-life ([3]; 5 mg/kg oral gavage, fasted): 268 min; MRT last ([3]; 5 mg/kg oral gavage, fasted): 5.28 h; AUC(0-t) ([4]; 1 mg/kg intravenous injection): 679 ng·h/mL; Cmax ([4]; 1 mg/kg intravenous injection): 945 ng/mL; Tmax ([4]; 1 mg/kg intravenous injection): 4.8 min; clearance ([4]; 1 mg/kg intravenous injection): 25.1 mL/min/kg; half-life ([4]; 1 mg/kg intravenous injection): 78 min; MRT last ([4]; 1 mg/kg intravenous injection): 0.91 h; Vd ([4]; 1 mg/kg intravenous injection): 1.5 L/kg; AUC(0-t) ([4]; 10 mg/kg oral gavage, fasted): 7880 ng·h/mL; Cmax ([4]; 10 mg/kg oral gavage, fasted): 4230 ng/mL; Tmax ([4]; 10 mg/kg oral gavage, fasted): 19.8 min; half-life ([4]; 10 mg/kg oral gavage, fasted): 105 min; MRT last ([4]; 10 mg/kg oral gavage, fasted): 1.89 h

Question: Which AUC(0-t) ([1]; 1 mg/kg intravenous injection) does the source give for O=C([C@H](CO)c1ccc(F)cc1F)N1CC(=C2CN(S(=O)(=O)c3ccccn3)C2)C1 [Compound 83, (S)-2-(2,4-difluorophenyl)-3-hydroxy-1-(1'-(pyridin-2-ylsulfonyl)-1',4'-dihydro-2H,2'H-[3,3'-diazetidinylidene]-1(4H)-yl)propan-1-one] here?
Answer: The AUC(0-t) was 537 ng·h/mL.

Question: What about the Cmax ([1]; 1 mg/kg intravenous injection) of the same compound?
Answer: The Cmax was 731 ng/mL.

Question: What about the Tmax ([1]; 1 mg/kg intravenous injection) of the same compound?
Answer: The Tmax was 4.8 min.

Question: What about the clearance ([1]; 1 mg/kg intravenous injection) of the same compound?
Answer: The clearance was 29.9 mL/min/kg.

Question: And the half-life ([1]; 1 mg/kg intravenous injection)?
Answer: Its half-life is 295 min.

Question: And the MRT last ([1]; 1 mg/kg intravenous injection)?
Answer: Its MRT last is 2.12 h.

Question: And the Vd ([1]; 1 mg/kg intravenous injection)?
Answer: The Vd was 5.11 L/kg.

Question: And the AUC(0-t) ([1]; 10 mg/kg oral gavage, fasted)?
Answer: The AUC(0-t) was 3300 ng·h/mL.

Question: And the Cmax ([1]; 10 mg/kg oral gavage, fasted)?
Answer: Its Cmax is 1740 ng/mL.

Question: And the Tmax ([1]; 10 mg/kg oral gavage, fasted)?
Answer: The Tmax was 15 min.

Question: What about the half-life ([1]; 10 mg/kg oral gavage, fasted) of the same compound?
Answer: Its half-life is 206 min.

Question: And the MRT last ([1]; 10 mg/kg oral gavage, fasted)?
Answer: The MRT last was 3.2 h.

Question: What about the AC50 [2, 5] of the same compound?
Answer: Its AC50 is 21.8 nM.

Question: And the AC50 [2, 6]?
Answer: Its AC50 is 20.9 nM.

Question: What about the AC50 [2, 7] of the same compound?
Answer: The AC50 was 24.8 nM.

Question: What about the AC50 [2, 8] of the same compound?
Answer: Its AC50 is 11.7 nM.

Question: And the AUC(0-t) ([3]; 2 mg/kg intravenous injection)?
Answer: The AUC(0-t) was 3110 ng·h/mL.

Question: What about the Cmax ([3]; 2 mg/kg intravenous injection) of the same compound?
Answer: Its Cmax is 1590 ng/mL.

Question: And the Tmax ([3]; 2 mg/kg intravenous injection)?
Answer: The Tmax was 4.8 min.

Question: What about the clearance ([3]; 2 mg/kg intravenous injection) of the same compound?
Answer: Its clearance is 11.2 mL/min/kg.

Question: What about the half-life ([3]; 2 mg/kg intravenous injection) of the same compound?
Answer: Its half-life is 223 min.

Question: And the MRT last ([3]; 2 mg/kg intravenous injection)?
Answer: Its MRT last is 2.79 h.

Question: What about the Vd ([3]; 2 mg/kg intravenous injection) of the same compound?
Answer: The Vd was 1.93 L/kg.

Question: What about the AUC(0-t) ([3]; 5 mg/kg oral gavage, fasted) of the same compound?
Answer: Its AUC(0-t) is 12200 ng·h/mL.

Question: And the Cmax ([3]; 5 mg/kg oral gavage, fasted)?
Answer: The Cmax was 3300 ng/mL.

Question: And the Tmax ([3]; 5 mg/kg oral gavage, fasted)?
Answer: The Tmax was 40.2 min.

Question: And the half-life ([3]; 5 mg/kg oral gavage, fasted)?
Answer: The half-life was 313 min.

Question: And the MRT last ([3]; 5 mg/kg oral gavage, fasted)?
Answer: Its MRT last is 4.51 h.

Question: What about the AUC(0-t) ([4]; 1 mg/kg intravenous injection) of the same compound?
Answer: The AUC(0-t) was 260 ng·h/mL.

Question: And the Cmax ([4]; 1 mg/kg intravenous injection)?
Answer: Its Cmax is 570 ng/mL.

Question: And the Tmax ([4]; 1 mg/kg intravenous injection)?
Answer: Its Tmax is 4.8 min.

Question: And the clearance ([4]; 1 mg/kg intravenous injection)?
Answer: The clearance was 62.9 mL/min/kg.

Question: What about the half-life ([4]; 1 mg/kg intravenous injection) of the same compound?
Answer: The half-life was 146 min.

Question: And the MRT last ([4]; 1 mg/kg intravenous injection)?
Answer: Its MRT last is 1.33 h.

Question: And the Vd ([4]; 1 mg/kg intravenous injection)?
Answer: Its Vd is 6.3 L/kg.

Question: And the AUC(0-t) ([4]; 10 mg/kg oral gavage, fasted)?
Answer: The AUC(0-t) was 2010 ng·h/mL.

Question: And the Cmax ([4]; 10 mg/kg oral gavage, fasted)?
Answer: The Cmax was 1440 ng/mL.

Question: What about the Tmax ([4]; 10 mg/kg oral gavage, fasted) of the same compound?
Answer: Its Tmax is 15 min.

Question: And the half-life ([4]; 10 mg/kg oral gavage, fasted)?
Answer: The half-life was 122 min.

Question: What about the MRT last ([4]; 10 mg/kg oral gavage, fasted) of the same compound?
Answer: Its MRT last is 1.71 h.
